Results published in US5843481A, “Treatment of proliferative disorders, metastasaes, and drug resistant tumors with vanadate compounds and derivatives or analogues thereof” (priority 1994, dated 1998).

Experiments:
[1] = system: non-proliferating chondrocytes; assay: Viability of non-proliferating chondrocytes (high cell density); format: cell-based, bovine; conditions: 0-50 μM, 48 hours; FIG. 6
Method: (§1) As described in example 1, orthovanadate inhibited fos, jun and collagenase expression. If fos and jun expression are required for cellular proliferation, then orthovanadate should inhibit chondrocyte proliferation. In order to compare the effect of orthovanadate on non-proliferating and proliferating chondrocytes, chondrocytes were plated at both high cell density (2×10^6 to 4×10^6 cells/per well on a six well plate) (nonproliferating) and at a lower cell density (5×10^5 to 1×10^6 cells/per well on a six well plate) (proliferating) and then maintained for 48 hours. The cells were then incubated in media (HAMS F12) containing 0-50 μM Orthovanadate for an additional 48 hours. The cells were harvested and the number of viable cells determined.

[2] = system: fos; assay: Northern blot analysis of fos mRNA expression in chondrocytes; format: cell-based, bovine
Method: The cytokine interleukin 1 (IL 1) has been used to identify the intermediate second messengers which regulate the expression of fos and jun.
In order to elucidate this possibility, the effect of DPI on fos and jun mRNA levels induced by IL 1 was investigated. RNA from chondrocytes treated with IL 1 in the presence and absence of DPI were analyzed by Northern blot analysis using either fos or collagenase cDNA probes.
Since superoxides are rapidly converted to hydrogen peroxide in the cell by superoxide dismutase, whether hydrogen peroxide could mimic the effect of IL 1 in the induction of fos expression was investigated. RNA was extracted from chondrocytes (Kandel et al. supra) treated with H2 O2 for 30, 60 and 90 minutes and examined by Northern blot analysis using a fos cDNA probe.
Bovine articular chondrocytes were isolated and plated as previously described (Kandel R. A. et al. Biochim. Biophys. Acta. 1053, 130-134, 1990). In order to determine the effect of orthovanadate on IL 1 and PMA (phorbol ester) induced responses, chondrocytes were incubated with orthovanadate (100 μM) for 2 hours before stimulation with IL 1 (10 ng/ml) or PMA ([…]). collagenase production was determined by incubating chondrocytes for 24 hours with IL 1 or PMA and the cell conditioned medium was assayed for collagenase activity using an ELISA procedure as described previously (Kandel et al. supra) PLA2 activity was measured by incorporating ^3 H-arachidonic acid (^3 H-AA) into the cells and then incubating the cells with medium containing 1 mg/ml BSA, either alone or in the presence of IL 1 or PMA, for 10 min. as previously described (Conquer, J. A. […], Biochim. Biophys. Acta. 1134, 1-6). The amount of ^3 H-AA liberated into the supernatant was determined. To measure PGE2 production, chondrocytes were incubated for 6 hours in Ham's F12 medium, either alone or with IL 1 or PMA. The supernatant was analyzed by RIA using an antibody specific for PGE2 (Dr. S. A. Jones, Mount Sinai Hospital, Toronto, Can.). In order to examine the expression of c-fos and c-jun, chondrocytes were incubated for 1 hour in the presence of IL-1, PMA or AA (3 μM). Chondrocytes were washed in PBS and the total RNA extracted as previously described (Cruz. et al, 1991, Biochem. J. 277, 327-330). RNA samples were run on formaldehyde agarose gels and transferred to nylon membrane for northern analysis using cDNA probes for c-fos and c-jun.
Cells were also incubated as described above with 20 mM N-acetylcyateine for 20 min. and then incubated with IL 1 for an additional 1 or 12 hours. The RNA was extracted and examined by Northern blot analysis using cDNA probes for c-fos and collagenase.

[3] = system: MDAY-D2; assay: MDAY-D2 tumor growth in mice, Example 6A; format: in vivo
Description: (§2) In order to examine the ability of vanadyl compounds to reduce tumor formation, growth and metastases, a specific animal model which allows investigation of all of these processes in the same animal was chosen. This model involves the injection of a metastatic haematopoietic cell line, MDAY-D2, into mice subcutaneously. These cells form a tumor at the site of injection and its size can be easily determined. In addition, these cells metastasize to the liver and metastases can be detected histologically after day 17 to 19. This model provides a very sensitive and reproducible approach to investigate the effect of vanadyl compounds on tumor growth and metastases.
Using the animal model described above, the effect of subcutaneous administration of orthovanadate on tumor growth was investigated. A total of 15 mice were injected subcutaneously with 1×10^5 MDAY-D2 cells on Day 1. On Day 5, small tumors could be observed at the site of injection. Five mice were injected daily with 50 μl of water alone and 10 mice were injected daily with water containing 10 mg/ml orthovanadate. On day 14, the mice were sacrificed. The tumors were removed from all the animals, photographed, and weighed. FIG. 11 compares sizes of tumors from two untreated and two orthovanadate treated mice. […] In animals treated with water alone, four mice had tumors weighing between 1.18 and 1.68 gms.

[4] = system: MDAY-D2; assay: Liver metastases of MDAY-D2 cells in mice (histology), Example 8; format: in vivo
Description: as §2
Livers were removed from animals treated as described above and prepared for histological examination. FIG. 16 compares liver sections from untreated (C), orthovanadate (VO)(500 μg/day) and vanadyl sulphate (VS)(500 μg/day) treated animals. Nodules are identified with an arrow.

[5] = system: KB8, KB8-5 and KB85-11 cells; assay: Viability of drug resistant ovarian cancer cell lines; format: cell-based
Description: The effect of orthovanadate on three ovarian cancer cell lines, KB8, KB8-5 and KB85-11, which have increasing drug resistance, respectively, relative to the parent cell line, KB3-1 was compared. These drug resistant cell lines are not killed by several classes of chemotherapeutic agents such as colchicine, vinblastine and doxorubicin. […] The cells were harvested and the number of viable cells determined.

[6] = system: proliferating chondrocytes; assay: Viability of proliferating chondrocytes (low cell density); format: cell-based, bovine; conditions: 0-50 μM, 48 hours; FIG. 6
Method: as §1

[7] = system: MDAY-D2 cells; assay: Viability of MDAY-D2 cells with different vanadyl compounds; format: cell-based, mouse; conditions: 0-50 μM, 48 hours; FIG. 8
Method: Three different forms of vanadyl compounds were examined for their effect on viability of cancer cell lines. MDAY-D2 cells were incubated in media containing 0-50 μM orthovanadate, vanadyl sulphate, or vanadyl hydroperoxide for 48 hours. The cells were harvested and the number of viable cells determined. […] Although there were slight differences in sensitivity, the overall cell death was similar.

For `[O]=[V]([O-])([O-])[O-]` [orthovanadate], the “toxicity to chondrocytes plated at high cell density (non-proliferating)” value [1] was “did not effect”, the “IL 1, PMA and AA induced c-fos expression” value ([2]; orthovanadate 100 μM, FIGS. 4 and 18) was “completely inhibited” and the “fos expression in response to factors such as IL 1 or arachidonic acid” value ([2]; summary statement) was “completely inhibit”. The “tumor size (five mice)” value ([3]; 10 mg/ml s.c. daily, day 14, five of 10 mice) was “less than 0.16 gms”, the “mice without detectable tumors” value ([3]; 10 mg/ml, 50 μl s.c. daily, day 14, of 10 mice, FIG. 12) was 2 mice and the “tumor size of treated mice versus untreated” value ([3]; FIG. 11) was “either undetectable or considerably smaller”. For the same compound, the “levels of metastases in liver” value ([4]; 500 μg/day, FIG. 16) was “did not have detectable levels of metastases”, the “effectiveness at preventing metastases” value ([4]; preliminary results, liver histology) was “effective at preventing metastases” and the “effectiveness in killing drug resistant cell lines” value ([5]; 0-50 μM, 48 hours, FIG. 10) was “equally effective”. For the same compound, the “cell death by three days of administration” value ([5]; three days) was “most of the cells had died”, the “toxicity to cells plated at low cell density (proliferating)” value [6] was “toxic” and the “effectiveness in killing MDAY-D2 cells” value [7] was “equally effective”.
